According to ChEMBL document CHEMBL4819085, “Dipyridyl-substituted thiosemicarbazone as a potent broad-spectrum inhibitor of metallo-β-lactamases” (Bioorg Med Chem, 2021):
Converted amounts (≈) assume the structure as drawn. The source made the active and inactive calls. The rule behind the calls is not given here.

Legend:
[1] = (§1) Inhibition of bacterial L1 using meropenem as substrate incubated for 1 hr by spectrometry analysis; set-up: species or system Bacteria
Bacteria [2] = assay: as §1
Escherichia coli [3] = assay: Antibacterial activity against Escherichia coli producing NDM-1 assessed as fractional inhibitory concentration index incubated for 24 hrs in presence of meropenem by checkerboard assay; type: functional
[4] = (§2) Inhibition of bacterial VIM-2 expressed in Escherichia coli BL21 (DE3) using meropenem as substrate incubated for 1 hr by spectrometry analysis; set-up: species or system Bacteria
Bacteria [5] = assay: as §2
Escherichia coli [6] = assay: Inhibition of Escherichia coli L1 assessed as potentiation of meropenem-induced antibacterial activity by measuring fold reduction in meropenem MIC up to 8 ug/ml incubated for 24 hrs by broth microdilution method relative to meropenem alone; details: dose microg/ml <=8, time 24.0 hrs
Escherichia coli [7] = assay: Antibacterial activity against Escherichia coli 04 assessed as reduction in bacterial growth incubated for 24 hrs by broth microdilution method; type: functional
Klebsiella pneumoniae [8] = assay: Potentiation of meropenem-induced antibacterial activity against Klebsiella pneumoniae assessed as meropenem MIC incubated for 24 hrs by broth microdilution method; type: functional
Klebsiella pneumoniae [9] = assay: Antibacterial activity against Klebsiella pneumoniae assessed as reduction in bacterial growth incubated for 24 hrs by broth microdilution method; type: functional
Escherichia coli [10] = assay: Antibacterial activity against Escherichia coli producing IMP-1 assessed as fractional inhibitory concentration index incubated for 24 hrs in presence of meropenem by checkerboard assay; type: functional, organism-based
Escherichia coli [11] = assay: Inhibition of Escherichia coli L1 assessed as potentiation of meropenem-induced antibacterial activity by measuring meropenem MIC incubated for 24 hrs by broth microdilution method
Escherichia coli [12] = assay: Synergistic antibacterial activity against Escherichia coli at 16 ug/ml in presence of meropenem; type: functional, organism-based; details: dose 16.0 µg/ml
Escherichia coli [13] = assay: Bactericidal activity against Escherichia coli producing NDM-1 assessed as reduction in bacterial viability upto 64 ug/ml incubated for 12 hrs by time kill assay; type: functional; details: dose microg/ml <=64
Escherichia coli [14] = assay: Potentiation of meropenem-induced antibacterial activity against Escherichia coli 06 assessed as meropenem MIC incubated for 24 hrs by broth microdilution method; type: functional
Klebsiella pneumoniae [15] = assay: Potentiation of meropenem-induced antibacterial activity against Klebsiella pneumoniae assessed as fold reduction in meropenem MIC incubated for 24 hrs by broth microdilution method relative to meropenem alone; type: functional
Klebsiella pneumoniae [16] = assay: Antibacterial activity against Klebsiella pneumoniae assessed as fractional inhibitory concentration index incubated for 24 hrs in presence of meropenem by checkerboard assay; type: functional
Escherichia coli [17] = assay: Antibacterial activity against Escherichia coli producing VIM-2 assessed as fractional inhibitory concentration index incubated for 24 hrs in presence of meropenem by checkerboard assay; type: functional
[18] = Binding affinity to Zn2+ ion assessed as UV absorption peak at 325 nm at 50 uM incubated for 5 mins in presence of ZnCl2 by spectrometry analysis
Escherichia coli [19] = assay: Potentiation of meropenem-induced antibacterial activity against Escherichia coli 24 assessed as fold reduction in meropenem MIC incubated for 24 hrs by broth microdilution method relative to meropenem alone; type: functional
Bacteria [20] = assay: Inhibition of bacterial ImiS expressed in Escherichia coli BL21 (DE3) at 20 uM using meropenem as substrate incubated for 1 hr by spectrometry analysis relative to control
[21] = Binding affinity to Zn2+ ion assessed as UV absorption peak at 435 nm at 50 uM incubated for 5 mins in presence of ZnCl2 by spectrometry analysis
Bacteria [22] = assay: Inhibition of bacterial VIM-2 expressed in Escherichia coli BL21 (DE3) at 20 uM using meropenem as substrate incubated for 1 hr by spectrometry analysis relative to control
Escherichia coli [23] = assay: Potentiation of meropenem-induced antibacterial activity against Escherichia coli 24 assessed as meropenem MIC incubated for 24 hrs by broth microdilution method; type: functional
Escherichia coli [24] = assay: Bactericidal activity against Escherichia coli producing NDM-1 assessed as reduction in bacterial viability at 4 ug/ml in presence of meropenem incubated for 12 hrs by time kill assay; type: functional, organism-based; details: dose 4.0 µg/ml

Question: Which results are given for CN(C(=S)NN=C(c1ccccn1)c1ccccn1)C1CCCCC1?
Answer: IC50 [1]: 1.08 µM; inhibition (Bacteria [2]): Dose-Dependent Effect; FIC (Escherichia coli [3]): 0.313; IC50 [4]: 0.11 µM; inhibition (Bacteria [5]): Dose-Dependent Effect; fold change (FC) (Escherichia coli [6]): 4; MIC (Escherichia coli [7]): 16 µg/mL (≈ 45.3 µM); MIC (Klebsiella pneumoniae [8]): 32 µg/mL; MIC (Klebsiella pneumoniae [9]): 32 µg/mL (≈ 90.5 µM); Activity (Escherichia coli [10]): inactive; MIC (Escherichia coli [11]): 32 µg/mL; Activity (Escherichia coli [12]): Active; inhibition (INH) (Escherichia coli [13]): 99%; MIC (Escherichia coli [14]): 64 µg/mL; fold change (FC) (Klebsiella pneumoniae [15]): 8; FIC (Klebsiella pneumoniae [16]): 0.313; FIC (Escherichia coli [17]): 0.313; Activity [18]: Active; fold change (FC) (Escherichia coli [19]): 2; inhibition (Bacteria [20]): > 90%; Activity [21]: Active; inhibition (Bacteria [22]): > 90%; MIC (Escherichia coli [23]): 16 µg/mL; inhibition (Escherichia coli [24]): Active
